The test system of series [1] is mitochondrial Complex I. The experiment in a line: Activity of mitochondrial complexes in permeabilized tumor cells (OCR), pancreatic cancer cells. The series is classed as cell-based, human. The protocol: To investigate the mechanism of mitochondrial inhibition, we measured the activity of mitochondrial complexes in tumor cells. The cell membrane was permeabilized, and OCR was measured upon addition of substrates and inhibitors of mitochondrial complexes I-II.

Series [2] relates to intact lung cancer cells. The experiment in a line: Cellular respiration (oxygen consumption rate, OCR) in intact lung cancer cells. The series is classed as cell-based, human. The settings on record: not shown. An excerpt: LON and Mito-LON inhibit mitochondrial complex I activity. Mito-LON inhibited cellular respiration (oxygen consumption rate, OCR) at >100-fold lower concentration than LON in intact lung cancer cells (FIG. 9). Both basal respiration and the response to mitochondrial stressors (oligomycin, dinitrophenol) were diminished by Mito-LON (not shown). To investigate the mechanism of mitochondrial inhibition, we measured the activity of mitochondrial complexes in H2030BrM3 cells (NSCLC cell line). The cell membrane was permeabilized, and OCR was measured upon addition of substrates and inhibitors of mitochondrial complexes I-IV (FIG. 9A). These studies established the optimal use of permeabilized cells for complex activity assays.^54 Next, cells were pretreated with LON and Mito-LON for 24 h and experiments performed as in FIG. 9A. […] We hypothesize that inhibition of mitochondrial complexes I and II is the predominant mechanism for antiproliferative effects of Mito-LON on lung cancer cells.

For series [3], the system named is mitochondrial Prx3. The series can be described thus: Redox status of mitochondrial peroxiredoxin. The series is classed as cell-based, human. The settings on record: lung cancer cells. The source says:
(§1) Inhibition of mitochondrial respiration results in increased O2^⋅− and other oxidants.

Series [4] deals with H2030BrM3 cells. The series can be described thus: Cellular ROS production, HPLC-based analysis of hydroethidine (HE) oxidation. The series is classed as cell-based, human. As to conditions: for ROS generation in lung cancer cells: concentration not given.
Source text: as §1

Series [5] has as its system H2030, PC9, H460, H2030BrM3, PC9BrM3 cells. The series can be described thus: Cell viability of lung cancer and brain metastatic lines (Calcein-AM). The series is classed as cell-based, human. The source says:
Mito-LON treatment causes cell death of human lung cancer and lung cancer-derived brain metastatic cell lines. Paradoxical roles for autophagy in cancer have been reported for the role of autophagy in cancer. Under conditions of nutrient deprivation autophagy induction can promote cell survival; however, in response to other environmental stressors including ROS generation, autophagy can promote cancer cell death. We treated lung cancer lines (H2030, PC9, H460) and lung cancer-derived brain metastatic lines (H2030BrM3, PC9BrM3) with Mito-LON (1.6, 2.0 or 2.4 μM) and measured cell viability at 24 and 48 h.

For series [6], the system named is PC9BrM3 and H2030BrM3 brain metastasis lung cancer cell lines. The experiment in a line: Boyden chamber (transwell) invasion assay. The series is classed as cell-based. The settings on record: Homo sapiens, H2030-BrM3, read-out: inhibitory effect on invasion when used alone. An excerpt:
Mito-LON inhibits migration and invasion of brain metastatic human lung cancer cells. To investigate the potential of Mito-LON and LON for lung cancer metastasis, we first tested its effects in vitro via the Boyden chamber invasion assay using PC9BrM3 and H2030BrM3 brain metastasis lung cancer cell lines.

Series [7] has as its system phosphorylated ERK and AKT in H2030BrM3 cells. The experiment in a line: Receptor tyrosine kinase assay and Western blots of ERK and AKT phosphorylation. The series is classed as cell-based, human. The source says: Role of HK2 and additional possible signaling events that contribute to the effects of Mito-LON. […] This could contribute to their effects as many cancers have constitutive ERK activation which promotes survival and proliferation, and ERK1 can play an important role in regulating mitochondrial activity, apoptosis, proliferation and migration. […] AKT is another pro-survival factor that is constitutively activated (phosphorylated) in many cancers.
A general note: A western blot detects proteins with antibodies after separation by electrophoresis.

Series [8] relates to cytosolic Prx1. The series can be described thus: Redox status of cytosolic peroxiredoxin. The series is classed as cell-based, human. The settings on record: lung cancer cells.
Source text: as §1

Series [9] relates to H2030BrM3 orthotopic lung adenocarcinoma in nude mice. The experiment in a line: Orthotopic lung tumor mouse model. The series is classed as in vivo. As for the experimental part:
Inhibitory effects of Mito-LON in an orthotopic lung tumor mouse model. We conducted a pilot study using an orthotopic model of lung adenocarcinoma (H2030BrM3 cells) in nude mice. Cells (1×10^6 cells/50 μg of growth factor-reduced Matrigel in 50 μL of RPMI-1640) were injected into the lung. One week after injection, mice were treated with the same dose of LON or Mito-LON (7.5 μmol/kg), or vehicle (corn oil), by oral gavage 5 times/wk for 3 wks.

Series [10] has as its system luciferase-expressing H2030BrM3 cells in Nod/Scid mice. The series can be described thus: Lung cancer brain metastasis model, intra-cardiac injection, bioluminescence. The series is classed as in vivo, mouse. The settings on record: 7.5 μmol/kg oral gavage. As for the experimental part:
Mito-LON inhibits lung cancer brain metastasis in Nod/Scid mice. Preliminary experiments assessed the effect of Mito-LON, and its enhanced potency vs. LON, on brain metastasis in Nod/Scid mice in which luciferase-expressing H2030BrM3 cells were injected via intra-cardiac insertion. To ensure the accuracy of injection and precision in the quantity of the cells injected, we used high-resolution echocardiography to guide the needle into the left ventricle. In FIG. 25A, the needle's positioning is clearly discernable. Mice were imaged for firefly luciferase expression (150 μg/g D-luciferin) using an IVIS 100 imaging system at multiple time points post-injection. Regions of interest were defined manually over the brain, and LivingImage and Igor image analysis software were used to determine total photon flux. One day after engrafting the H2030BrM3 cells in arterial circulation (FIG. 19A), LON or Mito-LON (7.5 μmol/kg each) were administered by oral gavage, tumor growth was monitored by bioluminescence, and ex vivo GFP expression and H&E staining were determined at the end point. H2030BrM3 cells rapidly colonized in the cerebrum and cerebellum (FIG. 25B).

In series [11] the test system is VC-induced lung tumors in A/J mice. The series can be described thus: Vinyl carbamate (VC)-induced lung carcinogenesis, post-initiation protocol. The series is classed as in vivo, mouse. An excerpt:
Preventive efficacy of Mito-LON on vinyl carbamate (VC)-Induced lung carcinogenesis using a post-initiation protocol. We evaluated the preventive efficacy of Mito-LON on the development of VC-induced lung tumors in A/J mice. A post-initiation protocol was used in this study by which administration of Mito-LON was initiated one week after VC. Mito-LON was given via oral gavage at a dose of 15 μmol/kg 5 days/week for 20 weeks.

Setting [12] is: 7.5 μmol/kg oral gavage 5 times/wk for 3 wks, nude mice.

Entries after “also recorded” stand apart in the source; their conditions may differ. Where only a bound is given, the exact number is not on record here.

With `O=C(NCCCCCCCCCC[P+](c1ccccc1)(c1ccccc1)c1ccccc1)c1nn(Cc2ccc(Cl)cc2Cl)c2ccccc12` [Mito-LON, Mito10-lonidamine], in series [1] (FIG. 7), the “Complex I versus Complex II inhibition” value is “inhibits Complex I more potently than Complex II”. Besides, the “fold more potent than lonidamine in inhibiting Complex I activity of tumor cells” value in [1] (FIGS. 7 and 8) was above 500 fold. Also, the “basal respiration and response to mitochondrial stressors (oligomycin, dinitrophenol)” value in series [2] is listed as “diminished”. The results for the “oxidation of mitochondrial Prx3” value in series [3] and in series [3] (listed as Mito-LDN) were “oxidizes mitochondrial Prx3; also recorded: pronounced oxidation” and “oxidizes mitochondrial Prx3”, respectively. Further, the “intracellular levels of 2-OH-E+ (superoxide-specific product of HE oxidation)” value in [4] (0.2 μM, H2030BrM3 cells) is “increase”. Further, in series [4] (H2030BrM3 cells), the “formation of diethidium (E+-E+)” value was “strongly induced”. The figures for the “ROS generation in lung cancer cells” value in series [4] and in series [4] (listed as Mito-LDN) were “stimulates ROS generation; also recorded: induced ROS generation in mitochondria; also recorded: enhanced the formation of 2-hydroxyethidium; also recorded: increased ROS generation” and “stimulates ROS generation”, respectively. Besides, the cytotoxicity at 2 µM in series [5] (Homo sapiens, NCI-H2030, H2030 cells, 2.0 μM, 48 h, Calcein-AM, read-out: reduction of cell viability) was around 50%. In [5] (lung cancer and brain metastatic lines, 24 and 48 h), the “LD50, cell viability” value is 2.0 µM. In addition, the inhibition at 0.6 µM in series [6] was below 10%. For the same molecule, the “phosphorylated AKT levels” value in [7] is “decreased phosphorylated AKT levels”. Also, in series [7] (confirmed by Western blots), the “phosphorylated ERK levels” value is listed as “decreased phosphorylated ERK levels”. In [8], the “effect on cytosolic Prx1” value is reported as “without significant effect”. In series [9] (setting [12]), the “reduction of lymph node metastasis” value was above 50%. The “reduction of tumor progression” value in series [9] (setting [12]) is above 70%. Also, in series [9] (7.5 μmol/kg oral gavage, 3 wks), the “liver histopathology (H&E sections)” value was “no histopathologic signs of toxicity”. Also, in [9] (designated from preliminary data (FIGS. 24 & 25)), the “effective dose (ED)” value is 7.5 µmol/kg. The “inhibition of brain metastasis of lung cancer cells” value in series [10] was “significant efficacy in inhibiting brain metastasis”. The “inhibition of VC-induced lung tumor development, total tumor load” value in [11] (15 μmol/kg oral gavage 5 days/week for 20 weeks, A/J mice) turned out to be 62%. Further, the body weight changes entry in [11] (15 μmol/kg oral gavage, 20 weeks) is “did not observe any body weight changes”.

The values above are taken from patent US11352382B2, “Mito-lonidamine, compositions and methods of use” (THE MEDICAL COLLEGE OF WISCONSIN, INC., priority 2018, dated 2022).
